The source of these data is ChEMBL document CHEMBL1201861, “Genomics of Drug Sensitity in Cancer screening data, Wellcome Trust Sanger Institute”.

Where only a bound is given, the exact number is not on record here.

In assay [1] the test system is REH. Nature of the assay: cells. The format is functional, cell-based, Homo sapiens. As to conditions: Homo sapiens, REH.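 Note: growth inhibition of REH cells determined with a cell viability read-out.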
Description: SANGER: Inhibition of human REH cell growth in a cell viability assay.
Assay [2] deals with EW-12. Nature of the assay: SANGER: Inhibition of human EW-12 cell growth in a cell viability assay. It is filed as functional, cell-based.
The subject of assay [3] is NCI-H1522. Nature of the assay: cells. The format is functional, cell-based, Homo sapiens. As to conditions: Homo sapiens, NCI-H1522.
Description: SANGER: Inhibition of human NCI-H1522 cell growth in a cell viability assay.
The test system of assay [4] is JIYOYE. Nature of the assay: cells. The format is functional, cell-based, Homo sapiens. As to conditions: Homo sapiens, JIYOYE.
Description: SANGER: Inhibition of human JiyoyeP-2003 cell growth in a cell viability assay.
The subject of assay [5] is SKM-1. Nature of the assay: SANGER: Inhibition of human SKM-1 cell growth in a cell viability assay. It is filed as functional, cell-based.
The test system of assay [6] is SUP-T1. Nature of the assay: cells. It is filed as functional, cell-based, Homo sapiens. As to conditions: Homo sapiens, SUP-T1.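 Note: growth inhibition of human SUP-T1 cells, read out as cell viability.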
Description: SANGER: Inhibition of human SUP-T1 cell growth in a cell viability assay.
The subject of assay [7] is Raji. Nature of the assay: cells. The format is functional, cell-based, Homo sapiens. Conditions: Homo sapiens, Raji.
Description: SANGER: Inhibition of human Raji cell growth in a cell viability assay.
Assay [8] has as its system NCI-H128. Nature of the assay: SANGER: Inhibition of human NCI-H128 cell growth in a cell viability assay. The format is functional, cell-based.
The subject of assay [9] is IM-9. Nature of the assay: SANGER: Inhibition of human IM-9 cell growth in a cell viability assay. The format is functional, cell-based. Conditions: Homo sapiens, IM-9.
The test system of assay [10] is YT. Nature of the assay: cells. It is filed as functional, cell-based, Homo sapiens. Conditions: Homo sapiens, YT.
Description: SANGER: Inhibition of human YT cell growth in a cell viability assay.
For assay [11], the system named is CPC-N. Nature of the assay: cells. It is filed as functional, cell-based, Homo sapiens. As to conditions: Homo sapiens, CPC-N.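 Note: growth inhibition of CPC-N cells, with a cell viability assay as the readout.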
Description: SANGER: Inhibition of human CPC-N cell growth in a cell viability assay.
The test system of assay [12] is NCI-H187. Nature of the assay: cells. It is filed as functional, cell-based, Homo sapiens. As to conditions: Homo sapiens, NCI-H187.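 Note: growth inhibition of NCI-H187 cells, read out as cell viability.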
Description: SANGER: Inhibition of human NCI-H187 cell growth in a cell viability assay.
Assay [13] deals with CAL-148. Nature of the assay: cells. The format is functional, cell-based, Homo sapiens. Conditions: Homo sapiens, CAL-148.
Description: SANGER: Inhibition of human CAL-148 cell growth in a cell viability assay.
For assay [14], the system named is ARH-77. Nature of the assay: cells. It is filed as functional, cell-based, Homo sapiens. As to conditions: Homo sapiens, ARH-77.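 Note: growth inhibition of ARH-77 cells, read out by a cell viability assay.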
Description: SANGER: Inhibition of human ARH-77 cell growth in a cell viability assay.
Assay [15] has as its system SIG-M5. Nature of the assay: cells. It is filed as functional, cell-based, Homo sapiens. As to conditions: Homo sapiens, SIG-M5.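 Note: cell viability assay read-out, measuring how strongly growth of cultured human SIG-M5 cells is inhibited.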
Description: SANGER: Inhibition of human SIG-M5 cell growth in a cell viability assay.
In assay [16] the test system is NCI-H2107. Nature of the assay: SANGER: Inhibition of human NCI-H2107 cell growth in a cell viability assay. The format is functional, cell-based.
Assay [17] relates to G-402. Nature of the assay: cells. It is filed as functional, cell-based, Homo sapiens. Conditions: Homo sapiens, G-402.
Description: SANGER: Inhibition of human G-402 cell growth in a cell viability assay.
Assay [18] relates to MCF7. Nature of the assay: cells. It is filed as functional, cell-based, Homo sapiens. Conditions: Homo sapiens, MCF7.
Description: SANGER: Inhibition of human MCF7 cell growth in a cell viability assay.
Assay [19] relates to BHT-101. Nature of the assay: cells. It is filed as functional, cell-based, Homo sapiens. Conditions: Homo sapiens, BHT-101.
Description: SANGER: Inhibition of human BHT-101 cell growth in a cell viability assay.
In assay [20] the test system is H9. Nature of the assay: cells. The format is functional, cell-based, Homo sapiens. Conditions: Homo sapiens, H9.
Description: SANGER: Inhibition of human H9 cell growth in a cell viability assay.
Assay [21] deals with PFSK-1. Nature of the assay: cells. The format is functional, cell-based, Homo sapiens. As to conditions: Homo sapiens, PFSK-1.
Description: SANGER: Inhibition of human PFSK-1 cell growth in a cell viability assay.
Assay [22] deals with D-423MG. Nature of the assay: cells. It is filed as functional, cell-based, Homo sapiens. Conditions: Homo sapiens, D-423MG.
Description: SANGER: Inhibition of human D-423MG cell growth in a cell viability assay.
Assay [23] relates to HCC38. Nature of the assay: cells. The format is functional, cell-based, Homo sapiens. As to conditions: Homo sapiens, HCC38.
Description: SANGER: Inhibition of human HCC38 cell growth in a cell viability assay.
The test system of assay [24] is MEL-JUSO. Nature of the assay: cells. The format is functional, cell-based, Homo sapiens. Conditions: Homo sapiens, MEL-JUSO.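 Note: growth inhibition of human MEL-JUSO cells, read out with a cell viability assay.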
Description: SANGER: Inhibition of human MEL-JUSO cell growth in a cell viability assay.
Assay [25] deals with UO-31. Nature of the assay: cells. The format is functional, cell-based, Homo sapiens. As to conditions: Homo sapiens, UO-31.
Description: SANGER: Inhibition of human U031 cell growth in a cell viability assay.
In assay [26] the test system is IGROV-1. Nature of the assay: cells. The format is functional, cell-based, Homo sapiens. Conditions: Homo sapiens, IGROV-1.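 Note: reduction of IGROV-1 cell growth, read out with a viability assay.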
Description: SANGER: Inhibition of human IGROV-1 cell growth in a cell viability assay.
Assay [27] deals with MKN-28. Nature of the assay: cells. It is filed as functional, cell-based, Homo sapiens. Conditions: Homo sapiens, MKN-28.
Description: SANGER: Inhibition of human MKN28 cell growth in a cell viability assay.
Assay [28] concerns LoVo. Nature of the assay: cells. As to conditions: Homo sapiens, LoVo. The format is functional, cell-based, Homo sapiens.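 Note: growth inhibition of human LoVo cells, read out with a cell viability assay.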
Description: SANGER: Inhibition of human LoVo cell growth in a cell viability assay.
In assay [29] the test system is ECC10. Nature of the assay: cells. Conditions: Homo sapiens, ECC10. The format is functional, cell-based, Homo sapiens.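 Note: growth inhibition of ECC10 cells, read out by a cell viability assay.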
Description: SANGER: Inhibition of human ECC10 cell growth in a cell viability assay.
The test system of assay [30] is NBsusSR. Nature of the assay: cells. The format is functional, cell-based, Homo sapiens. As to conditions: Homo sapiens, NBsusSR.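 Note: growth inhibition of the human cell line, read out with a cell viability assay.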
Description: SANGER: Inhibition of human NBsusSR cell growth in a cell viability assay.
Assay [31] concerns T47D. Nature of the assay: cells. The format is functional, cell-based, Homo sapiens. As to conditions: Homo sapiens, T47D.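 Note: growth inhibition of human T47D cells, measured with a cell viability assay.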
Description: SANGER: Inhibition of human T47D cell growth in a cell viability assay.
In assay [32] the test system is NCI-H2009. Nature of the assay: cells. It is filed as functional, cell-based, Homo sapiens. As to conditions: Homo sapiens, NCI-H2009.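 Note: cell viability assay measuring inhibition of NCI-H2009 cell growth.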
Description: SANGER: Inhibition of human NCI-H2009 cell growth in a cell viability assay.
In assay [33] the test system is HMV-2 cell line. Nature of the assay: cells. The format is functional, cell-based, Homo sapiens. Conditions: Homo sapiens, HMV-2.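 Note: growth inhibition of HMV-II cells, read out with a cell viability assay.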
Description: SANGER: Inhibition of human HMV-II cell growth in a cell viability assay.
Assay [34] deals with CFPAC-1. Nature of the assay: cells. The format is functional, cell-based, Homo sapiens. As to conditions: Homo sapiens, CFPAC-1.
Description: SANGER: Inhibition of human CFPAC-1 cell growth in a cell viability assay.
Assay [35] relates to NCI-H1048. Nature of the assay: cells. The format is functional, cell-based, Homo sapiens. As to conditions: Homo sapiens, NCI-H1048.
Description: SANGER: Inhibition of human NCI-H1048 cell growth in a cell viability assay.
Assay [36] relates to NCI-H2452. Nature of the assay: cells. It is filed as functional, cell-based, Homo sapiens. Conditions: Homo sapiens, NCI-H2452.
Description: SANGER: Inhibition of human NCI-H2452 cell growth in a cell viability assay.
Assay [37] concerns A-375. Nature of the assay: cells. It is filed as functional, cell-based, Homo sapiens. As to conditions: Homo sapiens, A-375.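 Note: growth inhibition of A375 cells, read out with a cell viability assay.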
Description: SANGER: Inhibition of human A375 cell growth in a cell viability assay.
Assay [38] deals with CHP-212. Nature of the assay: cells. It is filed as functional, cell-based, Homo sapiens. As to conditions: Homo sapiens, CHP-212.
Description: SANGER: Inhibition of human CHP-212 cell growth in a cell viability assay.
The test system of assay [39] is C32. Nature of the assay: cells. The format is functional, cell-based, Homo sapiens. Conditions: Homo sapiens, C32.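 Note: cell viability assay, with IC50 reflecting inhibition of C32 cell growth.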
Description: SANGER: Inhibition of human C32 cell growth in a cell viability assay.
Assay [40] deals with TI-73. Nature of the assay: cells. As to conditions: Homo sapiens, TI-73. The format is functional, cell-based, Homo sapiens.
Description: SANGER: Inhibition of human TI-73 cell growth in a cell viability assay.

As to `COc1cc(-c2nn([C@H]3CC[C@H](N4CCN(C(C)=O)CC4)CC3)c3ncnc(N)c23)ccc1NC(=O)c1cc2ccccc2n1C`, the IC50 – broadly, the concentration needed to halve the response being measured – in [1] is more than 5120 nM; in [2] it was more than 5120 nM; in assay [3], more than 5120 nM; in assay [4], 4210 nM; in assay [5], more than 5120 nM; in assay [6], more than 5120 nM. In addition, the IC50 in assay [7], in [8], in assay [9], in [10], in [11] and in assay [12] was more than 5120 nM throughout. The IC50 in [13], in assay [14], in assay [15] and in [16] was more than 5120 nM throughout.
With `OCCCNc1cc(-c2ccnc(Nc3cccc(Cl)c3)n2)ccn1`, the IC50 in [1] is more than 256 nM; in assay [2], more than 256 nM; in [3] it was more than 256 nM; in assay [4], 32.2 nM; in [5], more than 256 nM; in assay [6] it was more than 256 nM. Besides, the IC50 in assay [7] was 42.1 nM; in assay [8], more than 256 nM; in [9] it was more than 256 nM; in assay [10], more than 256 nM; in assay [11], more than 256 nM; in assay [12] it was more than 256 nM. For the same compound, the 50% inhibitory concentration (IC50) in [13] was 199 nM; in assay [14], 81.9 nM; in assay [15] it was 29.9 nM; in assay [16], 135 nM.
For the compound `CC(C)CCN1c2nc(Nc3cc(F)c(O)c(F)c3)ncc2N(C)C(=O)C1C` (stereo not given), the IC50 in assay [17] was more than 5000 nM; in assay [18], more than 5000 nM; in [19] it was 4110 nM; in assay [20] it was 60.2 nM; in [21], more than 5000 nM; in assay [22], 4810 nM. The IC50 in assay [23] was more than 5000 nM; in assay [24], more than 5000 nM; in assay [25], more than 5000 nM; in [26], more than 5000 nM; in assay [27], more than 5000 nM; in [28], 1470 nM. Also, the IC50 in [29] is 701 nM; in [30] it was 1830 nM; in assay [31], more than 5000 nM; in [32], more than 5000 nM; in [33], 2170 nM; in [34], more than 5000 nM. Besides, the IC50 in [35] was 2680 nM; in [36] it was more than 5000 nM; in assay [37] it was 4050 nM; in assay [38], more than 5000 nM; in assay [39], 3970 nM; in [40], more than 5000 nM.
For the compound `C#Cc1cccc(Nc2ncnc3cc(OCCOC)c(OCCOC)cc23)c1` [ERLOTINIB], the half-maximal inhibitory concentration (IC50) in [1], in assay [2], in [4], in assay [5], in assay [6] and in assay [7] was more than 2000 nM throughout. The IC50 in assay [8], in assay [9], in assay [10], in [11], in [12] and in assay [14] was more than 2000 nM throughout. The IC50 in assay [15] and in [16] was more than 2000 nM in each case.
